# Reference: patent US20060128695A1, “Cyclic nucleotide phosphodiesterase inhibitors, preparation and uses” (NEURO3D, priority 2002, published 2006)
# Legend:
# mice [1] = test: Swim test; assay type: in vivo, Wistar rats or Swiss mice; details: 3 and 30 mg/kg, 20 minutes before the test, versus control group and 0.3 mg/kg group
# Method: This test is based on the induction of alternative behavior in rodents subjected to an acute stress. In this model, the rat or mouse placed in a water-filled cylinder adopts a particular state of immobility. Onset of said immobility is delayed by antidepressants administered acutely or in repeated doses.
# Wistar rats or Swiss mice were used. Animals were isolated for one week with a reverse light/dark cycle, then placed in the water-filled cylinder for 6 minutes. The total immobility time was recorded during the last 4 minutes. The treatment was administered 20 minutes before the test. Four groups were used to test three different doses: one control group treated with the vehicle, and one group for the three doses.
# N=10; *** p<0.005 (Dunnett test).
# mice [2] = test: Light/dark test; assay type: in vivo, Balb/c or Swiss mice; details: mice, 0.3, 3 and 30 mg/kg orally 1 hour before the test, versus controls (p<0.01)
# Excerpt: This light/dark test is based on the natural tendency of rodents to prefer a dark environment and thereby evaluates the emotional responses of the animals in a situation of bright light. This procedure is suitable for assessing the state of anxiety elicited by anxiety stimuli (Lister's group, 1990). Mice placed in the apparatus, while showing a preference for the dark zone, nonetheless explore the light zone.
# Ten to eleven-week old Balb/c or Swiss mice were used. Mice were randomly divided into a control group (treated with the vehicle) and other groups treated with the test compounds.
# The test apparatus consisted of two PVC compartments (20×20×14 cm). with a plexiglass lid. One of the compartments was dark. A 100W light bulb was placed 15 cm above the other compartment, emitting the only light in the room (approximately 4400 lux). An opaque plastic tunnel separated the light and dark compartments.
# The animal was placed in the light compartment with its head pointed towards the tunnel. The time spent in the light compartment and the number of entries into the light compartment were recorded for 5 minutes after the first entry into the dark zone. The test compound or the control treatment were administered orally 1 hour before the test.
# N=10; ** p<0.01; **** p<0.001 (Dunnett test versus control).
# PDE3 = target: T1, PDE3 (Bos taurus, UniProt A0A3Q1M1E8); test: Selectivity: inhibition of PDE3, radioenzymatic phosphodiesterase assay; assay type: biochemical, bovine; details: 10 μM test compound; vascular smooth muscle; read-out: PDE3 percentage inhibition at 10 μM
# T1 sequence (A0A3Q1M1E8 1-1126): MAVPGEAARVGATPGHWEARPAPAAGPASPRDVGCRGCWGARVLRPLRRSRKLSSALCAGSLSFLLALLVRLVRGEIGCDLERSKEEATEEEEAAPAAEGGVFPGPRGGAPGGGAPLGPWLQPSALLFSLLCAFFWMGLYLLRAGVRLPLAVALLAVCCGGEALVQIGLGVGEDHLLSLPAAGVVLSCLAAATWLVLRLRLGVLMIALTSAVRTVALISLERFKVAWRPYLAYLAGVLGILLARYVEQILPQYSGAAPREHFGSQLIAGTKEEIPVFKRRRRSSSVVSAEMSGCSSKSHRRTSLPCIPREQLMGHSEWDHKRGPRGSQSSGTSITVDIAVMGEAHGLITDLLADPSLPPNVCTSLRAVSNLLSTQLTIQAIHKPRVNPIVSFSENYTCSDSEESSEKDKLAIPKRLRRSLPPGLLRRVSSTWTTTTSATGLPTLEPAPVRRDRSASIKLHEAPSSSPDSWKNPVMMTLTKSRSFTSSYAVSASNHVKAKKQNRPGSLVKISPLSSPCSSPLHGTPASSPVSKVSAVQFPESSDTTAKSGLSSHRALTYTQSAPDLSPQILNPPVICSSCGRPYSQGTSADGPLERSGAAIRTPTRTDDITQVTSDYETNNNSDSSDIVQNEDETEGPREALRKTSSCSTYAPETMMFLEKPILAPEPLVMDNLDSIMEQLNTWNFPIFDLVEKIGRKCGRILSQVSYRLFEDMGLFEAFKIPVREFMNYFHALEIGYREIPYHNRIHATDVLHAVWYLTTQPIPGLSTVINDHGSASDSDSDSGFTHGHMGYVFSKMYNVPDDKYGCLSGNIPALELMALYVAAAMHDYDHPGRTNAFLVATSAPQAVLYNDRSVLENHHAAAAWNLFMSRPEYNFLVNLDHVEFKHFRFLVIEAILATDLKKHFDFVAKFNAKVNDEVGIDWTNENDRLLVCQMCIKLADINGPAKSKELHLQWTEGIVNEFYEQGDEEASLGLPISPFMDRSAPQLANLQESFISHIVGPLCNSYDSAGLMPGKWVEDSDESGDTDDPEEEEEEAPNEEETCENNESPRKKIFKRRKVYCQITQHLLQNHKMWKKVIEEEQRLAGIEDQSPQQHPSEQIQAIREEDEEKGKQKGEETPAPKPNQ
# Method: A 3 g segment of bovine aortic media cut into pieces with scissors was homogenized with an ultra-turrax then a potter glass/glass homogenizer in 7 volumes by weight of buffer A containing a protease inhibitor cocktail (20 mM Tris-HCl, 0.25 M saccharose, 2 mM magnesium acetate, 1 mM dithiothreitol, 5 mM EGTA, 2000 U/ml aprotinin, 10 mg/l leupeptin and 10 mg/l soya trypsic inhibitor). The homogenizate was centrifuged at 105,000 g for 1 hour. The supernatant was loaded on a DEAE-Sephacel column (15 x 1.6 cm) pre-equilibrated with buffer B (buffer A without the saccharose, EGTA and protease inhibitors). The column was washed until there was no detectable absorption at 280 nm, then eluted with a linear gradient of NaCl (0-0.5 M) in buffer B. 3-ml fractions were collected and enzyme activity was determined under the conditions described hereinbelow to localize the different enzymes PDE1, PDE3, PDE4 and PDE5 which were aliquoted and frozen at −80° C. (Lugnier et al., Biochem. Phamacol., 1986, 35: 1746-1751). PDE2 was prepared from bovine endothelial cells by the same methods (Lugnier and Schini, Biochem. Pharmacol., 1990, 39: 75-84).
# Cyclic nucleotide phosphodiesterase activity was determined by a radioenzymatic method using tritium-labelled cyclic GMP or AMP (1 μM) as substrate (Lugnier et al., 1986). ^3H-labelled adenosine or guanosine monophosphate formed by hydrolysis of the radiolabelled cyclic nucleotide was then converted to ^3H-labelled adenosine or guanosine in a second reaction with […] in excess. The nucleoside formed was separated from the nucleotides by anion exchange chromatography. Nucleoside radioactivity was determined by liquid scintillation counting. […]
# The activity of the compounds was evaluated on other phosphodiesterase isoforms, particularly basal state or calmodulin-activated PDEl from vascular smooth muscle, PDE3, PDE4 and PDE5 from vascular smooth muscle.
# The results obtained are presented in Tables 1 and 2 hereinbelow and are expressed as the percentage inhibition of enzymatic activity produced by […] of the test compound.
smiles,measurement,setting,value
"COc1cc2c(cc1OC)N(C)C(=O)CN=C2c1cccc(C(N)=O)c1 [Compound 5a, 3-(7,8-dimethoxy-1-methyl-2-oxo-2,3-dihydro-1H-1,4-benzodiazepin-5-yl)-benzamide]",total immobility time,mice [1],shorter immobility time
same,time spent in the light compartment,mice [2],significantly more time in the light compartment
same,inhibition at 10 µM,PDE3,5%
